How the values were obtained:
Type in all cases: cell-based, human
[1] = tested on: MM cell lines MM1.S, MM1.R, RPMI-8226 (RPMI) and U266; test: Cell viability of MM cell lines (MTT / WST-8 assay); conditions: 18 h; for cell viability of all MM cell lines tested as compared to untreated control cells: WIN-55 0.5-50 uM, JWH-133 0.05-1 mM
Description: Human multiple myeloma cell lines MM1.S, MM1.R, RPMI-8226 (RPMI) and U266 were purchased from American Type Culture Collection [(ATCC), LGC Standards, Manassas, USA]. Human primary cells were obtained from MM patients' bone marrow (BM) and healthy donors' peripheral blood (PB). PB samples were collected from buffy coats and leukapheresis products, previously mobilized with granulocyte colony stimulating factor (G-CSF). Hematopoietic progenitor cells (CD34+) were isolated from leukaphesesis samples, and B (CD19+) and T (CD3+) lymphocytes from buffy coats by positive immunomagnetic separation in the AutoMACS pro separator (Miltenyi Biotec, Bergisch Gladbach, Germany). For this purpose CD34-, CD19- and CD3-MACS microbead Human Kit (Miltenyi Biotec, Bergisch Gladbach, Germany). The purity of all isolated cells was higher than 95% in all cases. BM samples were obtained from five MM patients. In all cases, BM plasma cell infiltration was greater than 30%. The different cell subpopuplations from MM patients BM were not separated, but they were identified by flow cytometry using a suitable combination of antibodies: anti-CD64-FITC, anti-CD34-PE, anti-CD56-APC, anti-CD38-APC-H7, and anti-CD45-Pacific Blue (BD Biosciences, San Jose, Calif.).
Except if otherwise indicated, for the viability assays primary cells were incubated 18 hours, with vehicle (with <0.15% DMSO) or cannabinoid. Meanwhile, the time course assays cells were performed at 0, 2, 6, 18 and 24 h. For the analysis of SPT activity, cells were co-incubated for the first 6 hours with the SPT inhibitor, myriocin, and the cannabinoid, WIN-55 or JWH-133.
The working concentrations of cannabinoids were determined by dose-response curves (data not shown) and selected within the linear range between observed safe and hazardous levels. […]
Cell viability of cell lines and CD34+, CD19+ and CD3+ cells was measured using the Cell Counting Kit-8 (Dojindo Molecular Technologies, Gaithersburg, Md.). This assay is based on the reduction of salt WST-8 by a mitochondrial dehydrogenase in viable cells, resulting in a colored formazan product that can be measured spectrometrically at 450 nm. […] After treatment, 10 ul salt WST-8 [2-(4-lodophenyl)-3-(4-nitrophenyl)-5-(2,4-disulfophenyl)-2H-tetrazolium] was added to each well and incubated for an additional 2 h at 37° C., and then the absorbance of generated formazan was measured in a plate reader Multiskan™ Go Microplate (Thermo Fisher Scientific, Waltham, Mass., USA).
Firstly, we assessed the effect of cannabinoids WIN-55 and JWH-133 on cell viability. To this end, the cells were treated with increasing concentrations of cannabinoids, WIN-55 (0.5-50 uM) and JWH-133 (0.05-1 mM), for 18, 48 and 96 hours, and viability was analyzed by MTT assays and flow cytometry. […]

[2] = tested on: T-cells (CD3+); test: Cell viability of T-cells (MTT)
[3] = tested on: B-cells (CD19+); test: Cell viability of B-cells (MTT)
[4] = tested on: CD34+ hematopoietic stem cells; test: Cell viability of CD34+ hematopoietic stem cells, Example 2 (MTT)
Description: Human primary cells were obtained from LMA patients' bone marrow (BM) and healthy donors' peripheral blood (PB). Hematopoietic progenitor cells (CD34+) were isolated from leukaphesesis samples, and B (CD19+) and T (CD3+) lymphocytes from buffy coats by positive immunomagnetic separation in the AutoMACS pro separator (Miltenyi Biotec, Bergisch Gladbach, Germany). For this purpose CD34-, CD19- and CD3-MACS microbead Human Kit (Miltenyi Biotec, Bergisch Gladbach, Germany).
Cells lines, CD34+ cells and blast were cultured in 96-well plates (5×10e5 cells per well) with the addition of the indicated concentrations of WIN 55,212-2 or JWH-133 in DMSO or with the solvent alone in triplicate. Also we add myoricin together the cannabinoid WIN-55 to see if this effect reversed. Cell viability was determined by the WST-1 [2-(4-lodophenyl)-3-(4-nitrophenyl)-5-(2,4-disulfophenyl)-2H-tetrazolium] assay as per the manufacturer's instructions (Dojindo Molecular Technologies). Optical densities were measured at 450 nm using a plate reader Multiskan™ Go Microplate (Thermo Fisher Scientific, Waltham, Mass., USA).
Stem cells were treated with WIN-55 or JWH-133 and cell viability was analyzed using MTT assay.

[5] = tested on: HL60 cells; test: Mitochondrial superoxide / ROS in HL60 cells (MitoSOX assay)
Procedure: Mitochondrial membrane potential and superoxide detection Cells (10e6 cells per assay) were treated with a concentration of WIN-55 for 15, 30, 45 and 60 min at 37° C. Fluorochromes 10 μM TMRM [(tetramethylrhodamine-ethyl-ester-perchlorate), Santa Cruz Biotechnology Inc.] to detect membrane potential, or 5 μM MitoSOX [Molecular Probes (Invitrogen)] to detect mitochondrial superoxide, were added for the last 15 min of treatment. CCCP (uncoupler of oxidative phosphorylation) or H2O2 (oxidant agent) was used as a positive control of the techniques respectively (Labbe et al., 2008). The fluorescence detection of TMRM was measured for flow citometry. Fluorescent intensity was quantified and analyzed using Infinicyt™ Software (Cytognos, Salamanca, Spain).
The MitoSOX signal was detected using a ‘Fluoroscan’ multi-well plate reader (Thermo Labsystems, Thermo Scientific), excitation/emission maxima of 543/593 nm.
To delve into the processes that participate in cannabinoid-induced apoptosis, we evaluated the potential of mitochondrial membrane potential in HL60 cells after treatment with WIN-55, at indicated times, using TMRE assay by flow citometry. We observed that cannabinoids induced a drop of Δψm in HL60 cells (FIG. 20a). The loss of potential started as early as 15 min after exposure to the cannabinoid, and continued decreasing over time. […]

Structure (SMILES)	sensitivity pattern of the MM cell lines [1]	cell viability of all MM cell lines tested as compared to untreated control cells [1]	viability of T-cells [2]	viability of B-cells [3]	cell viability of CD34+ hematopoietic stem cells [4]	ROS by MitoSOX assay [5]
CCCC(C)(C)c1ccc2c(c1)OC(C)(C)[C@@H]1CC=C(C)C[C@@H]21 [JWH-133, (6aR,10aR)-3-(1,1-Dimethylbutyl)-6a,7,10,10a-tetrahydro-6,6,9-trimethyl-6H-dibenzo [b,d] pyran]	decreasing from MM1.R, RPMI, MM1.S to U266	significantly reduced	remained unaffected	decreased viability	remains unaffected	
CS(=O)(=O)O.Cc1c(C(=O)c2cccc3ccccc23)c2cccc3c2n1[C@H](CN1CCOCC1)CO3 [WIN-55, (R)-(+)-[2,3-dihydro-5-methyl-3-(4-morpholinylmethyl)-pyrrolo-[1,2,3]-1,4-benzoxazin-6-yl]-1-naphthalenylmethanone mesylate]	MM1R and RPMI were the most sensitive	significantly reduced	remained unaffected	decreased viability	remains unaffected	increase

From patent US20180353461A1, “USE OF CANNABINOIDS AS CERAMIDE-GENERATING ANTICANCER AGENTS IN TUMORS OF THE HEMATOPOIETIC AND LYMPHOID TISSUES” (priority 2014, published 2018)
